Earlier results as cited in US20090239289A1, “Drain Foam Composition and Method of Using the Same” (priority 2008, published 2009).

SMILES: CC(COc1ccc(Oc2ccccc2)cc1)Oc1ccccn1 (stereo not shown) [Nylar, 2-[1-methyl-2(4-phenoxyphenoxy)ethoxy]pyridine]
- residual when used outdoors: about 30 days
